For one data set, the system named is ddY mice. To be noted: mouse, in vivo, ip, 500 mg/kg.
Data set [1] in a line: Stability (half life) in phosphate buffers of various pH. The data set is classed as physicochemical. To be noted: for half-life: 28° C. On the procedure:
By adding 2% sodium hydroxide or 10% hydrochloric acid, the pH of 0.05 M phosphate buffer is adjusted to 4, 5, 6, 7, 8 and 9, respectively, and distributed into test tubes in an amount of 3 ml. Concentrated solution of antibiotic OA-6129A (0.05 ml) is added to each test tube and allowed to stand in a thermostatic chamber of 28° C. The time course curve of the concentration decrease of antibiotic OA-6129A is drawn by spectrophotometric measurement at 300 nm, from which the half life of the antibiotic at the indicated pH is calculated. As a control, antibiotic PS-5, a carbapenem compound described in the above-cited reference is simultaneously tested.

For the next data set, the system named is Alcaligenes Faecolis A1. Put plainly: MIC by agar dilution method. The data set is classed as cell-based. The following applies: Alcaligenes Faecolis A1; agar dilution, 37° C., 18 hours; read-out: MIC. The protocol:
(§1) The MIC is measured by an agar dilution method based on the standard method of the Japanese Society of Chemotherapy (Japanese Society of Chemotherapy: The Revised Method of Determination of MIC Values, Chemotherapy 22, 1126-1128, […]). Specifically, the antibiotic is serially diluted with a 1/50 M phosphate buffer at a pH of 7.3 to prepare a twofold dilution series. One milliliter of each dilution and 9 ml of an agar medium (Heart Infusion Agar; a product of Difco Laboratories) are mixed and allowed to solidify in a Petri dish having a diameter of 9 cm. One loopful of the stock culture of the test microbe is inoculated in trypto-soy buillon (a product of Eiken Kagaku Co., Ltd.) and incubated at 37° C. for 18 hours. The resulting culture broth is diluted to a concentration of about 10^6 cells/ml with physiological saline and inoculated on the agar plate by means of a microplanter.
(In agar dilution the substance is mixed into plates at graded concentrations.)

Data set [2] concerns Bacillus subtillis ATCC 6633. The data set is described as follows: MIC by agar dilution method. The data set is classed as cell-based. The following applies: ATCC6633; Bacillus subtillis ATCC 6633; agar dilution, 37° C., 18 hours; read-out: MIC. On the procedure:
as §1

Data set [3] concerns Citrobacter Freundii GN346. The data set is described as follows: MIC by agar dilution method. The data set is classed as cell-based. To be noted: 37° C., 18 hours. The protocol: as §1
A further data set concerns Comamonas terrigena B996. Put plainly: MIC by agar dilution method. To be noted: 37° C., 18 hours. The data set is classed as cell-based. The protocol: as §1
The subject of the next data set is E. coli RGN823. Put plainly: MIC by agar dilution method. The data set is classed as cell-based. To be noted: Escherichia coli, 37° C., 18 hours. The protocol: as §1
The next data set has as its system Ent. cloacae 45. The data set is described as follows: MIC by agar dilution method. The data set is classed as cell-based. The following applies: Enterobacter cloacae, 37° C., 18 hours. On the procedure:
as §1

The next data set deals with Ent. sp. E8. The data set is described as follows: MIC by agar dilution method. To be noted: Ent. sp. E8; agar dilution, 37° C., 18 hours; read-out: MIC. The data set is classed as cell-based. On the procedure: as §1
In data set [4] the test system is Enterobacter aerogenes E19. The data set is described as follows: MIC by agar dilution method. The data set is classed as cell-based. To be noted: Klebsiella aerogenes, 37° C., 18 hours. The protocol:
as §1

In another data set the test system is Escherichia coli K-12. The data set is described as follows: MIC by agar dilution method. The following applies: K12; Escherichia coli K-12; agar dilution, 37° C., 18 hours; read-out: MIC. The data set is classed as cell-based. The protocol:
as §1

Data set [5] relates to Klebsiella pneumoniae K13. Put plainly: MIC by agar dilution method. The data set is classed as cell-based. The following applies: 37° C., 18 hours. On the procedure: as §1
Another data set has as its system P. rettgeri P7. The data set is described as follows: MIC by agar dilution method. The data set is classed as cell-based. To be noted: Providencia rettgeri; P. rettgeri P7; agar dilution, 37° C., 18 hours; read-out: MIC. The protocol:
as §1

The next data set deals with P. vulgaris GN76. The data set is described as follows: MIC by agar dilution method. The data set is classed as cell-based. To be noted: Proteus vulgaris, 37° C., 18 hours. The protocol: as §1
In another data set the test system is Proteus mirabilis P6. The data set is described as follows: MIC by agar dilution method. The data set is classed as cell-based. To be noted: Proteus mirabilis P6; agar dilution, 37° C., 18 hours; read-out: MIC. The protocol: as §1
A further data set concerns Providencia sp. P8. Put plainly: MIC by agar dilution method. To be noted: Providencia sp. P8; agar dilution, 37° C., 18 hours; read-out: MIC. The data set is classed as cell-based. The protocol: as §1
In another data set the test system is Ps. aeruginosa NCTC10490. Put plainly: MIC by agar dilution method. The data set is classed as cell-based. The following applies: Pseudomonas aeruginosa, 37° C., 18 hours. On the procedure: as §1
For data set [6], the system named is Pseudomonas aenginosa IFO3445. Put plainly: MIC by agar dilution method. The data set is classed as cell-based. To be noted: 37° C., 18 hours. The protocol:
as §1

A further data set has as its system S. aureus Russell. The data set is described as follows: MIC by agar dilution method. The data set is classed as cell-based. To be noted: Staphylococcus aureus; S. aureus Russell; agar dilution, 37° C., 18 hours; read-out: MIC. The protocol:
as §1

For a further data set, the system named is S. aureus Smith. The data set is described as follows: MIC by agar dilution method. To be noted: Staphylococcus aureus, 37° C., 18 hours. The data set is classed as cell-based. The protocol:
as §1

For the next data set, the system named is S. epidermidis. Put plainly: MIC by agar dilution method. The data set is classed as cell-based. To be noted: Staphylococcus epidermidis, 37° C., 18 hours. The protocol: as §1
For the next data set, the system named is Sarcina lutea S19. Put plainly: MIC by agar dilution method. To be noted: Micrococcus luteus, 37° C., 18 hours. The data set is classed as cell-based. On the procedure:
as §1

The test system of the next data set is Ser. marcesceus T55. The data set is described as follows: MIC by agar dilution method. The data set is classed as cell-based. The following applies: 37° C., 18 hours. The protocol:
as §1

Another data set has as its system Serratia marcesceus S18. The data set is described as follows: MIC by agar dilution method. The data set is classed as cell-based. To be noted: 37° C., 18 hours. On the procedure:
as §1

Data set [7] has as its system Staphylococcus aureus 209P. The data set is described as follows: MIC by agar dilution method. The data set is classed as cell-based. To be noted: 37° C., 18 hours. On the procedure:
as §1

For data set [8], the system named is Citrobacter Freundii GN346. The data set is described as follows: Disc assay of synergy, inhibition zones. The data set is classed as cell-based. The following applies: disc OA-6129B2, PS-5 100 μg/ml, CER, PCG 1000 μg/ml. The protocol: (§2) (B) The presence or absence of synergy is visually checked by the size difference in inhibitory zones observed when the test drug is disc-assayedon an agar plate of a detector microbe and on an agar plate of the detector containing cephaloridine or benzylpenicillin, respectively.
(§3) One loopful of the stock culture of a test organism is inoculated in heat infusion broth (5 ml/tube), and grown at 37° C. for 18 hours. The culture broth is diluted to a final concentration of about 10^5 cells/ml in nutrient agar with or without benzyl penicillin or cephaloridine, and plated in a Petri dish with a diameter of 9 cm, as shown below.
(§4) Using the above-prepared agar plates, antibiotic PS-5 (100 μg/ml), antibiotic OA-6129B2 (5,6-trans OA-6129B) (100 μg/ml), benzylpenicillin (1000 μg/ml) and cephaloridine (1000 μg/ml) are subjected to disc assay.

The subject of another data set is Enterobacter cloacac 45. The data set is described as follows: Disc assay of synergy, inhibition zones. The following applies: disc OA-6129B2, PS-5 100 μg/ml, CER, PCG 1000 μg/ml. The data set is classed as cell-based. The protocol:
as §2, §3, §4

Another data set relates to Proteus vulgaris GN76. Put plainly: Disc assay of synergy, inhibition zones. The data set is classed as cell-based. To be noted: disc OA-6129B2, PS-5 100 μg/ml, CER, PCG 1000 μg/ml. On the procedure: as §2, §3, §4
A further data set has as its system Serratia marccscens T55. Put plainly: Disc assay of synergy, inhibition zones. The data set is classed as cell-based. To be noted: disc OA-6129B2, PS-5 100 μg/ml, CER, PCG 1000 μg/ml. The protocol: as §2, §3, §4

Converted amounts (≈) assume the structure as drawn.

For orientation: MIC means the least concentration at which growth counts as inhibited. A word on the half-life: it is the time in which the quantity being followed falls by half. The low end stands for fast loss, the high end for slow loss.

As to `CC(O)C1C(=O)N2C(C(=O)O)=C(SCCNC(=O)CCNC(=O)C(O)C(C)(C)CO)CC12` (stereo not shown) [OA-6129B], the acute toxicity entry in the data set with ddY mice is reported as “no acute toxicity is observed”. The “stability relative to OA-6129A” value in data set [1] (phosphate buffer, pH 4 to 9, 28° C.) was “substantially the same stability as antibiotic OA-6129A”.
For the compound `CCC1C(=O)N2C(C(=O)O)=C(SCCNC(C)=O)CC12` (stereo not shown) [PS-5, reference compound], the MIC came to 0.78 µg/mL (≈ 2.61 µM) in the data set with Alcaligenes Faecolis A1; 0.1 µg/mL (≈ 0.335 µM) in data set [2]; 3.13 µg/mL (≈ 10.5 µM) in [3]; 0.012 µg/mL (≈ 0.0402 µM) against Comamonas terrigena B996; 3.13 µg/mL (≈ 10.5 µM) in the data set with E. coli RGN823; 3.13 µg/mL (≈ 10.5 µM) in the data set on Ent. cloacae 45. The MIC in the data set on Ent. sp. E8 was 3.13 µg/mL (≈ 10.5 µM); in data set [4], 3.13 µg/mL (≈ 10.5 µM); in the data set with Escherichia coli K-12, 1.56 µg/mL (≈ 5.23 µM); in data set [5], 3.13 µg/mL (≈ 10.5 µM); with P. rettgeri P7, 3.13 µg/mL (≈ 10.5 µM); with P. vulgaris GN76 it was 6.25 µg/mL (≈ 20.9 µM). Further, the MIC with Proteus mirabilis P6 amounted to 6.25 µg/mL (≈ 20.9 µM); in the data set with Providencia sp. P8, 3.13 µg/mL (≈ 10.5 µM); in the data set on Ps. aeruginosa NCTC10490 it was 12.5 µg/mL (≈ 41.9 µM); in data set [6] it was 12.5 µg/mL (≈ 41.9 µM); with S. aureus Russell, 0.2 µg/mL (≈ 0.67 µM); in the data set with S. aureus Smith, 0.2 µg/mL (≈ 0.67 µM). For the same compound, the minimum inhibitory concentration (MIC) with S. epidermidis was 0.2 µg/mL (≈ 0.67 µM); in the data set on Sarcina lutea S19 it was 0.1 µg/mL (≈ 0.335 µM); with Ser. marcesceus T55, 6.25 µg/mL (≈ 20.9 µM); against Serratia marcesceus S18, 3.13 µg/mL (≈ 10.5 µM); in data set [7], 0.024 µg/mL (≈ 0.0804 µM). In addition, the zone of inhibition at 100 µg/mL amounted to 22.5 mm in [8] (Citrobacter freundii, GN346, plate: None, read-out: diameter of inhibition zones); 20 mm with Enterobacter cloacac 45 (Enterobacter, 45, plate: None, read-out: diameter of inhibition zones); 17.5 mm in the data set with Proteus vulgaris GN76 (Proteus vulgaris, GN76, plate: None, read-out: diameter of inhibition zones); 23.5 mm in the data set with Serratia marccscens T55 (Serratia, T55, plate: None, read-out: diameter of inhibition zones). Also, the “diameter of inhibition zones” value in [8] (plate: + CER) turned out to be 24.0 mm; in data set [8] (plate: + PCG), 23.5 mm; with Enterobacter cloacac 45 (plate: + CER), 22.5 mm; in the data set with Enterobacter cloacac 45 (plate: + PCG) it was 21.0 mm; in the data set on Proteus vulgaris GN76 (plate: + CER), 23.5 mm; with Proteus vulgaris GN76 (plate: + PCG) it was 25.0 mm. Further, the “diameter of inhibition zones” value is 34.0 mm with Serratia marccscens T55 (plate: + CER) and 24.0 mm in the data set with Serratia marccscens T55 (plate: + PCG, reduced to 5 μg/ml (final concentration)). For the same compound, the half-life in data set [1] (pH 4, 0.05 M phosphate buffer) is 0.2 h; in [1] (pH 5, 0.05 M phosphate buffer) it was 3.43 h; in data set [1] (pH 6, 0.05 M phosphate buffer) it was 13.2 h; in data set [1] (pH 7, 0.05 M phosphate buffer), 38.2 h; in data set [1] (pH 8, 0.05 M phosphate buffer), 78 h; in data set [1] (pH 9, 0.05 M phosphate buffer), 36.2 h.

(Values after patent US4426390A, “Novel β-lactam compounds, process for producing thereof, and use thereof as medicines” (Sanraku-Ocean Co., Ltd., priority 1980, dated 1984).)
